Converted amounts (≈) assume the structure as drawn. Structures can show the parent of a compound that is named as a salt. Where two headings read alike, the source gives them in different places.
How the values were obtained:
[1] = format: physicochemical
Procedure: After addition of the base solution, a white suspension formed, and some material coagulated on the walls of the solution container.
The resulting solution was concentrated to a final volume of about 2 ml on a rotary evaporator and then diluted to 40 ml with water. Two-milliliter aliquots of this solution were added to each of several 6-ml vials.
The solution was concentrated in vacuo to remove methanol and diluted to 10 ml for lyophilization. The lyophilized solid is white and powdery.

[2] = test system: Alcaligenes viscolactis; assay: Antimicrobial activity of CL-1957A, paper disc growth inhibition zone; format: cell-based; settings: ATCC21698, 16 h, ATCC 21698, Mycin medium, 500 μg/ml, read-out: Diameter of Inhibition Zone
Procedure: (§1) The disc and inoculated medium were incubated for 16 hours at 37° C. and the diameter of the resulting growth inhibition zone, if any, was measured.

[3] = test system: Bacillus subtilis; assay: as above; format: cell-based
Procedure: as §1

[4] = test system: Branhamella catarrahalis; assay: as above; format: cell-based; settings: 16 h; PD 03596, CAP medium, 500 μg/ml; read-out: Diameter of Inhibition Zone
Procedure: as §1

[5] = test system: Micrococcus luteus; assay: as above; format: cell-based; settings: 16 h, PD 05064, PAS medium, read-out: Diameter of Inhibition Zone
Procedure: as §1

[6] = test system: Proteus vulgaris; assay: as above; format: cell-based; settings: 16 h, PD 05062, PAS medium, read-out: Diameter of Inhibition Zone
Procedure: as §1

[7] = test system: Staphylococcus aureus; assay: as above; format: cell-based; settings: 16 h, read-out: Diameter of Inhibition Zone; for zone of inhibition at 10 µg/mL: 10 μg/ml; for zone of inhibition at 500 µg/mL: 500 μg/ml; for zone of inhibition at 100 µg/mL: 100 μg/ml
Procedure: as §1

[8] = test system: Xanthomonas phaseoli; assay: as above; format: cell-based; settings: 16 h, PD 06002, CMA medium, read-out: Diameter of Inhibition Zone
Procedure: as §1

[9] = test system: P388 leukemia; assay: In vivo activity of CL-1957A against P388 leukemia in mice
[10] = test system: L1210 mouse leukemia cells; assay: Cytotoxicity of CL-1957A in vitro; format: cell-based; settings: read-out: ID50 (the source's name)
From the text: (§2) The ID50 values appear in Table XII.

[11] = test system: human colon adenocarcinoma cells; assay: Cytotoxicity of CL-1957A in vitro; format: cell-based; settings: read-out: ID50 (the source's name)
From the text: as §2

[12] = test system: Ridgeway Osteogenic Sarcoma; assay: In vivo activity of CL-1957A against Ridgeway Osteogenic Sarcoma in mice
Procedure: Male AKR mice were pooled, inoculated subcutaneously by trocar with 30-60 mg fragments of Ridgeway Osteogenic Sarcoma, repooled, and randomly distributed to treatment groups on Day 0.
Appropriate mice received intrapertioneal injections of the test compound dissolved in 0.9% sodium chloride solution on Days 2, 6, and 10, and then weekly thereafter. Tumors were measured on Days 24 and 35. The results are presented in Table XIII as % T/C (as defined below). % T/C values of less than 40 on Day 35 are considered active. [formula]

[13] = test system: B16 Melanoma; assay: In vivo activity of CL-1957A against B16 Melanoma in mice; settings: ratio of median life span
From the text: The activity of the compound against B16 melanoma is presented in Table XIV in terms of % T/C values which represents the ratio of median life span in days of treated mice to untreated mice, expressed as a percentage.

[14] = format: physicochemical; settings: for Percent Remaining After One Week: 168 h
Procedure: The thin-film preparations which resulted were assayed for stability by comparing the purity of the film against a standard sample by HPLC techniques.

[15] = physchem; format: physicochemical

With CCC(C=CC1OC(=O)C=CC1C)=CC(C)CC=CC(C)=CC(C)C(=O)C(C)C(O)C(C)CC(C)=CC(=O)O (stereo not drawn) [CL-1957A triethylammonium salt] the solubility in water [1] was “soluble in water”.
CCC(C=CC1OC(=O)C=CC1C)=CC(C)CC=CC(C)=CC(C)C(=O)C(C)C(O)C(C)CC(C)=CC(=O)O (stereo not drawn) [CL-1957A, 19-(3,6-dihydro-3-methyl-6-oxo-2H-pyran-2-yl)-17-ethyl-6-hydroxy-3,5,7,9, 11,15-hexamethyl-8-oxo 2,10,12 16,18-nonadecapentaenoic acid] gave a zone of inhibition at 500 µg/mL [2] of 19 mm, a zone of inhibition at 10 µg/mL ([3]; 16 h, PD 04969, #169 medium, 10 μg/ml, read-out: Diameter of Inhibition Zone) of 0 mm and a zone of inhibition at 100 µg/mL ([3]; ATCC6633, 16 h, read-out: Diameter of Inhibition Zone, ATCC 6633, #169 medium, 100 μg/ml) of 16 mm. It also gave a zone of inhibition at 10 µg/mL ([3]; ATCC6633, 16 h, read-out: Diameter of Inhibition Zone, ATCC 6633, Mycin medium, 10 μg/ml) of 0 mm, a zone of inhibition at 100 µg/mL ([3]; ATCC6633, 16 h, read-out: Diameter of Inhibition Zone, ATCC 6633, Mycin medium, 100 μg/ml) of 0 mm and a zone of inhibition at 500 µg/mL [4] of 30 mm. The zone of inhibition at 10 µg/mL ([5]; 10 μg/ml) was 0 mm, the zone of inhibition at 100 µg/mL ([5]; 100 μg/ml) was 0 mm and the zone of inhibition at 10 µg/mL ([6]; 10 μg/ml) was 0 mm. It also gave a zone of inhibition at 100 µg/mL ([6]; 100 μg/ml) of 0 mm, a zone of inhibition at 500 µg/mL ([6]; 500 μg/ml) of 0 mm and a zone of inhibition at 10 µg/mL ([7]; PD 02482, PAS medium) of 0 mm. The zone of inhibition at 500 µg/mL ([7]; PD 02482, PAS medium) was 16 mm, the zone of inhibition at 10 µg/mL ([7]; PD 5045, AM-9 medium) was 0 mm and the zone of inhibition at 100 µg/mL ([7]; PD 5045, AM-9 medium) was 17 mm. It also gave a zone of inhibition at 500 µg/mL ([7]; PD 5045, AM-9 medium) of 22 mm, a zone of inhibition at 10 µg/mL ([7]; PD 5045, AM-10 medium) of 0 mm and a zone of inhibition at 100 µg/mL ([7]; PD 5045, AM-10 medium) of 19 mm. It also gave a zone of inhibition at 500 µg/mL ([7]; PD 5045, AM-10 medium) of 22 mm, a zone of inhibition at 10 µg/mL ([8]; 10 μg/ml) of 0 mm and a zone of inhibition at 100 µg/mL ([8]; 100 μg/ml) of 0 mm. The zone of inhibition at 500 µg/mL ([8]; 500 μg/ml) was 0 mm, the “% T/C” value ([9]; 12.5 μg/kg/injection, Days 1-5, Test 1) was 118% and the “% T/C” value ([9]; 25 μg/kg/injection, Days 1-5, Test 1) was 127%. The “% T/C” value ([9]; 100 μg/kg/injection, Days 1-5, Test 1) was “Toxic”, the “% T/C” value ([9]; 100 μg/kg/injection, Days 1-5, Test 2) was “Toxic” and the IC50 [10] was 0.118 ng/mL (≈ 0.218 nM). For the same compound, the IC50 [11] was 0.02 ng/mL (≈ 0.037 nM), the “% T/C” value ([12]; 0.125 mg/kg/injection i.p. Days 2, 6, 10, then weekly, Day 24) was 14% and the “% T/C” value ([12]; 0.125 mg/kg/injection i.p. Days 2, 6, 10, then weekly, Day 35, less than 40 considered active) was 22%. The “% T/C” value ([12]; 0.25 mg/kg/injection i.p. Days 2, 6, 10, then weekly, Day 24) was 15%, the “% T/C” value ([12]; 0.25 mg/kg/injection i.p. Days 2, 6, 10, then weekly, Day 35, less than 40 considered active) was 9% and the “% T/C” value ([12]; 0.50 mg/kg/injection i.p. Days 2, 6, 10, then weekly, Day 24) was 0%. For the same compound, the “% T/C” value ([12]; 0.50 mg/kg/injection i.p. Days 2, 6, 10, then weekly, Day 35, less than 40 considered active) was 0%, the “% T/C” value ([13]; 0.075 mg/kg/injection i.p. Days 1, 5, 9) was 201% and the “% T/C” value ([13]; 0.60 mg/kg/injection i.p. Days 1, 5, 9) was “Toxic”. The “stability of ascorbate-containing thin-film preparation” value [14] was “began to show some decomposition”, the “stability of solid preparations of the pure compound” value [14] was “insufficiently stable for pharmaceutical use” and the “stability of thin-film preparations” value [14] was “not stable for periods of even one week”. For the same compound, the “Percent Remaining After One Week” value ([14]; solid cake from 1,1-dimethylethanol) was 56%, the “Percent Remaining After One Week” value ([14]; thin film from 95% ethanol) was 40% and the “Percent Remaining After One Week” value ([14]; thin film from abs. ethanol) was 60%. It also gave a remaining at 730 h ([15]; 95% ethanol) of 100%, a remaining at 3650 h ([15]; 95% ethanol) of 100% and a remaining at 3650 h ([15]; abs. ethanol) of 100%. The remaining at 730 h ([15]; absolute ethanol) was 100%, the remaining at 730 h ([15]; dimethylacetamide) was 95% and the remaining at 730 h ([15]; dimethylsulfoxide) was 93%. It also gave a remaining at 730 h ([15]; propylene glycol) of 100% and a remaining at 3650 h ([15]; propylene glycol) of 100%.
With CCC(C=CC1OC(=O)C=CC1C)=CC(C)CC=CC(C)=CC(C)C(=O)C(C)C(O)C(C)CC(C)=CC(=O)O [N-methyl-D-glucamine salt] the solubility in water [1] was “soluble in water”.
In the case of CCC(C=CC1OC(=O)C=CC1C)=CC(C)CC=CC(C)=CC(C)C(=O)C(C)C(O)C(C)CC(C)=CC(=O)O (stereo not drawn) [calcium salt of CL-1957A], the solubility in ethanol [1] is reported as “soluble in ethanol” and the solubility in water [1] is reported as “insoluble in water”.

— patent publication US4771070A (Warner-Lambert Company, priority 1986, dated 1988)
